Data: US8592174B2, “Peptidase substrates” (bioMérieux, S.A., priority 2009, dated 2013)
Each block holds one compound with its values, some of them ahead of it.

Tests used:
Assay type in all cases: cell-based
[1] = system: Enterobacter sakazakii 05 01 020; experiment: pH variation detection on modified chromID Coli medium (Example 6); details: 50 mg/l, 24 h 37° C.
Method: (§1) The media were incubated for 24 hours at 37° C., then the spots formed were examined visually.

[2] = system: Pectobacterium atrosepticum 80 12 075; experiment: as above; details: 50 mg/l, 24 h 37° C.
Method: as §1

[3] = system: Pseudomonas aeruginosa 89 09 041; experiment: as above; details: 50 mg/l, 24 h 37° C.
Method: as §1

[4] = system: Burkholderia cepacia 7507032; experiment: Peptidase detection on Columbia medium (Example 5); details: 75 mg/l, 48 h 37° C.
Method: (§2) After homogenization, the media were distributed into Petri dishes 55 mm in diameter. A medium acting as a growth control (Columbia) and denoted C was also poured.
(§3) Twenty-two strains of microorganisms were inoculated with a 10 μl calibrated loop according to the three-quadrant streaking method using bacterial suspensions at 0.5 McFarland.

Candida albicans 0801025 = experiment: Peptidase detection on Columbia medium (Example 5); details: 75 mg/l, 48 h 37° C.
Method: as §2, §3

Candida glabrata 0408083 = experiment: Peptidase detection on Columbia medium (Example 5); details: 75 mg/l, 48 h 37° C.
Method: as §2, §3

[5] = system: Citrobacter freundii 0006197; experiment: Peptidase detection on Columbia medium (Example 5); details: 75 mg/l, 48 h 37° C.
Method: as §2, §3

[6] = system: Enterococcus faecalis 0008192; experiment: Peptidase detection on Columbia medium (Example 5); details: 75 mg/l, 48 h 37° C.
Method: as §2, §3

[7] = system: Morganella morganii 9207053; experiment: Peptidase detection on Columbia medium (Example 5); details: 75 mg/l, 48 h 37° C.
Method: as §2, §3

[8] = system: Staphylococcus epidermidis 0203050; experiment: Peptidase detection on Columbia medium (Example 5); details: 75 mg/l, 48 h 37° C.
Method: as §2, §3

[9] = system: Yersinia enterocolitica 7605019; experiment: Peptidase detection on Columbia medium (Example 5); details: 75 mg/l, 48 h 37° C.
Method: as §2, §3

[10] = system: Escherichia coli NCTC 10 418; experiment: Peptidase detection on Columbia medium (Example 2); parameters: key to Growth: NG: No growth; 0.5: weak growth; 1: moderate growth; 2: good growth; details: 40 mg in 400 ml Columbia; 24 h 37° C.
Method: (§4) The 6 media were distributed into Petri dishes 90 mm in diameter, in a proportion of 20 ml per dish.
(§5) Seventeen strains of microorganisms stemming from collections and belonging to various species of bacteria and yeasts are inoculated in spots of approximately 10 000 colony-forming units.
(§6) The media are incubated for 24 hours at 37° C., and then the colonies formed are examined visually, with or without the addition of acid and under a UV lamp at 365 nm.

[11] = system: Serratia marcescens NCTC 10 211; experiment: Peptidase detection on Columbia medium (Example 2); parameters: key to Growth: NG: No growth; 0.5: weak growth; 1: moderate growth; 2: good growth; details: 40 mg in 400 ml Columbia; 24 h 37° C.
Method: as §4, §5, §6

[12] = system: Yersinia enterocolitica NCTC 11 176; experiment: Peptidase detection on Columbia medium (Example 2); parameters: key to Growth: NG: No growth; 0.5: weak growth; 1: moderate growth; 2: good growth; details: 40 mg in 400 ml Columbia; 24 h 37° C.
Method: as §4, §5, §6

[13] = system: Salmonella typhimurium NCTC 74; experiment: Peptidase detection on Columbia medium (Example 2); parameters: key to Growth: NG: No growth; 0.5: weak growth; 1: moderate growth; 2: good growth; details: 40 mg in 400 ml Columbia; 24 h 37° C.
Method: as §4, §5, §6

[14] = system: Bacillus subtilis NCTC 9 372; experiment: Peptidase detection on Columbia medium (Example 2); parameters: key to Growth: NG: No growth; 0.5: weak growth; 1: moderate growth; 2: good growth; key to Fluo. / Color / Color post-acid.: —: no color; details: 40 mg in 400 ml Columbia; 24 h 37° C.
Method: as §4, §5, §6

[15] = system: Enterococcus faecalis NCTC 775; experiment: Peptidase detection on Columbia medium (Example 2); parameters: key to Growth: NG: No growth; 0.5: weak growth; 1: moderate growth; 2: good growth; details: 40 mg in 400 ml Columbia; 24 h 37° C.
[16] = system: Enterococcus faecium NCTC 7 171; experiment: Peptidase detection on Columbia medium (Example 2); parameters: key to Growth: NG: No growth; 0.5: weak growth; 1: moderate growth; 2: good growth; key to Fluo. / Color / Color post-acid.: —: no color; details: 40 mg in 400 ml Columbia; 24 h 37° C.
[17] = system: Staphylococcus aureus NCTC 6 571; experiment: Peptidase detection on Columbia medium (Example 2); parameters: key to Growth: NG: No growth; 0.5: weak growth; 1: moderate growth; 2: good growth; key to Fluo. / Color / Color post-acid.: —: no color; details: 40 mg in 400 ml Columbia; 24 h 37° C.
Method: as §4, §5, §6

[18] = system: Listeria monocytogenes NCTC 11 994; experiment: Peptidase detection on Columbia medium (Example 2); parameters: key to Growth: NG: No growth; 0.5: weak growth; 1: moderate growth; 2: good growth; key to Fluo. / Color / Color post-acid.: —: no color; details: 40 mg in 400 ml Columbia; 24 h 37° C.
Method: as §4, §5, §6

[19] = system: Candida albicans ATCC 90 028; experiment: Peptidase detection on Columbia medium (Example 2); parameters: key to Growth: NG: No growth; 0.5: weak growth; 1: moderate growth; 2: good growth; key to Fluo. / Color / Color post-acid.: —: no color; details: 40 mg in 400 ml Columbia; 24 h 37° C.
Method: as §4, §5, §6

[20] = system: Candida glabrata NCPF 3 943; experiment: Peptidase detection on Columbia medium (Example 2); parameters: key to Growth: NG: No growth; 0.5: weak growth; 1: moderate growth; 2: good growth; key to Fluo. / Color / Color post-acid.: —: no color; details: 40 mg in 400 ml Columbia; 24 h 37° C.
Method: as §4, §5, §6

SMILES: Nc1ccc(C=Cc2ccnc3ccccc23)cc1
Coloration strength [1]: − | Growth ([1]; control C: ++): ++ | Coloration strength [2]: − | Growth ([2]; control C: −): − | Coloration strength [3]: − | Growth ([3]; control C: ++): +

Color [4]: − | Coloration strength [4]: − | Growth ([4]; control C: ++): ++ | Color [5]: orange | Coloration strength [5]: ++ | Growth ([5]; control C: ++): ++ | Color [6]: orange | Coloration strength [6]: + | Growth ([6]; control C: +): + | Color [7]: orange | Coloration strength [7]: ++ | Growth ([7]; control C: ++): ++
SMILES: C[C@H](N)C(=O)Nc1ccc(C=Cc2cc[n+](C)c3ccccc23)cc1.Cl.[Cl-] [L-alanyl-4-(4′-amidostyryl)-N-methylquinolinium (dichloride)]
Color (Candida albicans 0801025): − | Coloration strength (Candida albicans 0801025): − | Growth (Candida albicans 0801025; control C: ++): ++ | Color (Candida glabrata 0408083): − | Coloration strength (Candida glabrata 0408083): − | Growth (Candida glabrata 0408083; control C: +): + | Color [8]: orange | Coloration strength [8]: + | Growth ([8]; control C: ++): ++ | Color [9]: orange | Coloration strength [9]: ++ | Growth ([9]; control C: +): +

Color [11]: Orange | Growth [11]: 2 | Color [13]: Orange | Growth [13]: 2 | Color [14]: — | Growth [14]: 2 | Growth [15]: 2 | Color [16]: — | Growth [16]: 2 | Color [18]: — | Growth [18]: 2
SMILES: C[C@H](N)C(=O)N[C@@H](C)C(=O)N[C@@H](C)C(=O)Nc1ccc(C=Cc2cc[n+](C)c3ccccc23)cc1.Cl.[Cl-] [Tri-Ala-ASQM^+, L-alanyl-L-alanyl-L-alanyl-4-(4′-amidostyryl)-N-methylquinolinium (dichloride)]
Color [10]: Orange | Growth [10]: 2 | Growth [12]: 2 | Color [17]: — | Growth [17]: 2 | Color [19]: — | Growth [19]: 2 | Color [20]: — | Growth [20]: 2
